Experimental findings from ChEMBL document CHEMBL1135903 (J Med Chem, 2002) are described below.

One assay deals with Carbonic anhydrase 1 (Homo sapiens, UniProt P00915).
The next assay addresses T1, Carbonic anhydrase 4 (Bos taurus, UniProt Q95323).
T1 sequence (Q95323 whole entry): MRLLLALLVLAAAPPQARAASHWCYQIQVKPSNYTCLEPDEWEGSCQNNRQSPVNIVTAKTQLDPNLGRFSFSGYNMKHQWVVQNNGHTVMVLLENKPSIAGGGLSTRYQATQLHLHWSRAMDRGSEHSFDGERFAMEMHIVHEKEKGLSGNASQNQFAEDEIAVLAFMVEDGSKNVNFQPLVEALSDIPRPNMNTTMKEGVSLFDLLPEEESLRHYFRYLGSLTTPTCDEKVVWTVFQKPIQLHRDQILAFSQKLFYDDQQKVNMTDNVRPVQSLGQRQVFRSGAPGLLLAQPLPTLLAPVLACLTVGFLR

Carbonic anhydrase 1, sequence (P00915 whole entry): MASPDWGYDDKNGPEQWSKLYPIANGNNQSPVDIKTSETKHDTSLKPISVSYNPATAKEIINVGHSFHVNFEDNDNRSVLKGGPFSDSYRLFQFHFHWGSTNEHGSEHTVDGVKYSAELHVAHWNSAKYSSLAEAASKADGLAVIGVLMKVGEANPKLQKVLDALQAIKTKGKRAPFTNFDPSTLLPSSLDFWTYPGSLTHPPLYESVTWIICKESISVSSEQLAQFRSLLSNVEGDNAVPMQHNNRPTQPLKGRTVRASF
Description for Carbonic anhydrase 1: Inhibitory activity against Human carbonic anhydrase I
Description for Carbonic anhydrase 4: Inhibitory activity against bovine carbonic anhydrase IV

As usually defined, the Ki is the dissociation constant of the complex between target and ligand, obtained from inhibition or displacement. For the compound `Cn1nc(S(N)(=O)=O)s/c1=N/C(=O)CN(CC(=O)O)CC(=O)O`, the Ki was found to be 520 nM at Carbonic anhydrase 1 and 106 nM at Carbonic anhydrase 4.
For `NS(=O)(=O)c1ccc(NC(=O)CN(CCOCCOCCN(CC(=O)O)CC(=O)O)CC(=O)O)c(I)c1`, in that order: 76 nM and 24 nM.
Consider `NS(=O)(=O)c1nc2ccc(OC(=O)CN(CCOCCOCCN(CC(=O)O)CC(=O)Oc3ccc4nc(S(N)(=O)=O)sc4c3)CC(=O)O)cc2s1`, for which the Ki on Carbonic anhydrase 1 was found to be 21 nM; on Carbonic anhydrase 4 it was 5 nM.
Regarding `NS(=O)(=O)c1ccccc1NC(=O)CN(CCN(CC(=O)O)CC(=O)Nc1ccccc1S(N)(=O)=O)CC(=O)O`, the Ki worked out at 8100 nM at Carbonic anhydrase 1 and 650 nM on Carbonic anhydrase 4.
`NS(=O)(=O)c1ccccc1NC(=O)CN(CCOCCOCCN(CC(=O)O)CC(=O)Nc1ccccc1S(N)(=O)=O)CC(=O)O`: the Ki was 5600 nM at Carbonic anhydrase 1 and 320 nM at Carbonic anhydrase 4.
Regarding `NS(=O)(=O)c1nnc(NC(=O)CN(CCOCCOCCN(CC(=O)O)CC(=O)Nc2nnc(S(N)(=O)=O)s2)CC(=O)O)s1`, the Ki at Carbonic anhydrase 1 came out at 27 nM; on Carbonic anhydrase 4, 8 nM.
For `NS(=O)(=O)c1cccc(NC(=O)CNCC(=O)O)c1`, in that order: 23000 nM and 1500 nM.
As to `NS(=O)(=O)c1ccc(NNC(=O)CN(CCN(CC(=O)O)CC(=O)NNc2ccc(S(N)(=O)=O)cc2)CC(=O)O)cc1`, the results for the Ki at Carbonic anhydrase 1 and on Carbonic anhydrase 4 were 12500 nM and 510 nM, respectively.
Turning to `NS(=O)(=O)c1ccc(CNC(=O)CN(CCN(CC(=O)O)c2ccccc2O)c2ccccc2O)cc1`, the results for the Ki at Carbonic anhydrase 1 and at Carbonic anhydrase 4 were 1200 nM and 135 nM, respectively.
Consider `NS(=O)(=O)c1nnc(NC(=O)CN(CCN(CC(=O)O)c2ccccc2O)c2ccccc2O)s1`, for which the results for the inhibition constant (Ki) at Carbonic anhydrase 1 and at Carbonic anhydrase 4 were 245 nM and 105 nM, respectively.
For the compound `NS(=O)(=O)c1ccc(CCNC(=O)CN(CCOCCOCCN(CC(=O)O)CC(=O)O)CC(=O)O)cc1`, the Ki on Carbonic anhydrase 1 is 290 nM; on Carbonic anhydrase 4 it was 32 nM.
As for `NS(=O)(=O)c1ccc(CCNC(=O)CNCC(=O)O)cc1`, the Ki on Carbonic anhydrase 1 amounted to 3450 nM; on Carbonic anhydrase 4, 257 nM.
For the compound `NS(=O)(=O)c1ccc(NC(=O)CNCCNCC(=O)O)cc1`, the Ki at Carbonic anhydrase 1 amounted to 12000 nM; at Carbonic anhydrase 4 it was 365 nM.
`NS(=O)(=O)c1cc(S(N)(=O)=O)c(NC(=O)CNCC(=O)O)c(Cl)c1Cl`: the figures for the Ki at Carbonic anhydrase 1 and at Carbonic anhydrase 4 were 405 nM and 107 nM, respectively.
In the case of `NS(=O)(=O)c1ccc(NC(=O)CNCC(=O)O)c(F)c1`, the figures for the Ki at Carbonic anhydrase 1 and on Carbonic anhydrase 4 were 1300 nM and 145 nM, respectively.
Regarding `NS(=O)(=O)c1nc2ccc(OCCOC(=O)CNCC(=O)O)cc2s1`, the Ki came to 46 nM at Carbonic anhydrase 1 and 12 nM on Carbonic anhydrase 4.
Regarding `NS(=O)(=O)c1cc(S(N)(=O)=O)c(NC(=O)CN(CCN(CC(=O)O)CC(=O)O)CC(=O)O)c(Cl)c1Cl`, the inhibition constant Ki on Carbonic anhydrase 1 is 130 nM; at Carbonic anhydrase 4 it was 96 nM.
For `NS(=O)(=O)c1ccccc1NC(=O)CN(CCN(CC(=O)O)CC(=O)O)CC(=O)O`, the results for the Ki at Carbonic anhydrase 1 and at Carbonic anhydrase 4 were 9200 nM and 800 nM, respectively.
Consider `NS(=O)(=O)c1ccc(CNC(=O)CNCC(=O)O)cc1`, for which the values for the Ki at Carbonic anhydrase 1 and at Carbonic anhydrase 4 were 3600 nM and 279 nM, respectively.
Take `NS(=O)(=O)c1ccccc1NC(=O)CN(CC(=O)O)CC(=O)O`: the inhibitory constant (Ki) at Carbonic anhydrase 1 came out at 25800 nM; on Carbonic anhydrase 4 it was 1200 nM.
On to `NS(=O)(=O)c1ccc(NC(=O)CN(CCN(CC(=O)O)c2ccccc2O)c2ccccc2O)c(Br)c1`, for which the inhibition constant Ki at Carbonic anhydrase 1 was found to be 175 nM; at Carbonic anhydrase 4, 56 nM.
For `NS(=O)(=O)c1ccc(NNC(=O)CNCC(=O)O)cc1`, in that order: 32700 nM and 980 nM.
For the compound `NS(=O)(=O)c1nc2ccc(NC(=O)CN(CCN(CC(=O)O)c3ccccc3O)c3ccccc3O)cc2s1`, the Ki was found to be 52 nM on Carbonic anhydrase 1 and 13 nM on Carbonic anhydrase 4.
For `NS(=O)(=O)c1nc2ccc(NC(=O)CNCCNCC(=O)O)cc2s1`, in that order: 56 nM and 12 nM.
On the same counts, the results for `NS(=O)(=O)c1ccc(NC(=O)CNCCNCC(=O)O)c(Cl)c1` are 900 nM and 155 nM.
`NS(=O)(=O)c1ccccc1NC(=O)CNCCNCC(=O)O`: the Ki at Carbonic anhydrase 1 is 20500 nM; on Carbonic anhydrase 4, 1020 nM.
On the same counts, the results for `NS(=O)(=O)c1ccc(COC(=O)CN(CC(=O)O)CC(=O)O)cc1` are 1200 nM and 350 nM.
On the same counts, the results for `NS(=O)(=O)c1nc2ccc(OC(=O)CN(CCN(CC(=O)O)CC(=O)O)CC(=O)O)cc2s1` are 43 nM and 10 nM.
On the same counts, the results for `NS(=O)(=O)c1ccc(NNC(=O)CN(CCOCCOCCN(CC(=O)O)CC(=O)NNc2ccc(S(N)(=O)=O)cc2)CC(=O)O)cc1` are 9500 nM and 400 nM.
As to `NS(=O)(=O)c1cc(S(N)(=O)=O)c(NC(=O)CNCC(=O)O)cc1Cl`, the Ki at Carbonic anhydrase 1 is 400 nM; on Carbonic anhydrase 4, 145 nM.
For `NS(=O)(=O)c1nc2ccc(NC(=O)CNCC(=O)O)cc2s1`, in that order: 65 nM and 14 nM.
Take `NS(=O)(=O)c1ccc(NC(=O)CN(CCOCCOCCN(CC(=O)O)CC(=O)Nc2ccc(S(N)(=O)=O)cc2I)CC(=O)O)c(I)c1`: the inhibitory constant (Ki) at Carbonic anhydrase 1 amounted to 76 nM; at Carbonic anhydrase 4, 20 nM.
Take `NS(=O)(=O)c1ccc(NC(=O)CNCCNCC(=O)O)c(Br)c1`: the results for the Ki on Carbonic anhydrase 1 and at Carbonic anhydrase 4 were 380 nM and 54 nM, respectively.
Take `NS(=O)(=O)c1ccc(CCOC(=O)CN(CC(=O)O)CC(=O)O)cc1`: the inhibitory constant (Ki) on Carbonic anhydrase 1 came to 1100 nM; on Carbonic anhydrase 4, 320 nM.
On the same counts, the results for `NS(=O)(=O)c1ccc(CCNC(=O)CNCCNCC(=O)O)cc1` are 1540 nM and 250 nM.
Take `NS(=O)(=O)c1ccc(NNC(=O)CN(CC(=O)O)CC(=O)O)cc1`: the Ki at Carbonic anhydrase 1 came out at 30500 nM; on Carbonic anhydrase 4, 930 nM.
On to `Cn1nc(S(N)(=O)=O)s/c1=N/C(=O)CN(CCOCCOCCN(CC(=O)O)CC(=O)O)CC(=O)O`, for which the Ki at Carbonic anhydrase 1 turned out to be 66 nM; on Carbonic anhydrase 4 it was 16 nM.
On the same counts, the results for `NS(=O)(=O)c1nc2ccc(OCCOC(=O)CN(CCN(CC(=O)O)CC(=O)O)CC(=O)O)cc2s1` are 39 nM and 8 nM.
Take `NS(=O)(=O)c1ccc(NC(=O)CN(CC(=O)O)CC(=O)O)c(F)c1`: the Ki on Carbonic anhydrase 1 is 1000 nM; on Carbonic anhydrase 4, 136 nM.
On the same counts, the results for `Cn1nc(S(N)(=O)=O)s/c1=N/C(=O)CN(CCOCCOCCN(CC(=O)O)CC(=O)/N=c1/sc(S(N)(=O)=O)nn1C)CC(=O)O` are 32 nM and 7 nM.
Take `NS(=O)(=O)c1nc2ccc(NC(=O)CN(CC(=O)O)CC(=O)O)cc2s1`: the values for the Ki on Carbonic anhydrase 1 and at Carbonic anhydrase 4 were 62 nM and 13 nM, respectively.
As to `NS(=O)(=O)c1ccc(NC(=O)CNCCNCC(=O)O)c(F)c1`, the Ki at Carbonic anhydrase 1 came to 780 nM; on Carbonic anhydrase 4 it was 103 nM.
For `NS(=O)(=O)c1nc2ccc(NC(=O)CN(CCOCCOCCN(CC(=O)O)CC(=O)Nc3ccc4nc(S(N)(=O)=O)sc4c3)CC(=O)O)cc2s1`, in that order: 23 nM and 4 nM.
As for `NS(=O)(=O)c1ccc(COC(=O)CNCCNCC(=O)O)cc1`, the Ki came out at 1020 nM at Carbonic anhydrase 1 and 350 nM on Carbonic anhydrase 4.
For the compound `NS(=O)(=O)c1ccc(NC(=O)CN(CCOCCOCCN(CC(=O)O)CC(=O)Nc2ccc(S(N)(=O)=O)cc2Br)CC(=O)O)c(Br)c1`, the inhibitory constant (Ki) on Carbonic anhydrase 1 is 85 nM; at Carbonic anhydrase 4 it was 25 nM.
Turning to `NS(=O)(=O)c1ccc(CCNC(=O)CN(CCN(CC(=O)O)CC(=O)O)CC(=O)O)cc1`, the Ki is 650 nM at Carbonic anhydrase 1 and 75 nM at Carbonic anhydrase 4.
For `NS(=O)(=O)c1nc2ccc(NC(=O)CN(CCOCCOCCN(CC(=O)O)CC(=O)O)CC(=O)O)cc2s1`, in that order: 39 nM and 7 nM.
On the same counts, the results for `NS(=O)(=O)c1nnc(NC(=O)CCNC(=O)CN(CCOCCOCCN(CC(=O)O)CC(=O)NCCC(=O)Nc2nnc(S(N)(=O)=O)s2)CC(=O)O)s1` are 76 nM and 6 nM.
With `NS(=O)(=O)c1ccc(NNC(=O)CNCCNCC(=O)O)cc1`, the values for the inhibition constant (Ki) on Carbonic anhydrase 1 and on Carbonic anhydrase 4 were 21800 nM and 950 nM, respectively.
For the compound `NS(=O)(=O)c1cc(S(N)(=O)=O)c(NC(=O)CN(CCOCCOCCN(CC(=O)O)CC(=O)Nc2c(S(N)(=O)=O)cc(S(N)(=O)=O)c(Cl)c2Cl)CC(=O)O)c(Cl)c1Cl`, the inhibitory constant (Ki) stood at 49 nM at Carbonic anhydrase 1 and 21 nM on Carbonic anhydrase 4.
`NS(=O)(=O)c1cccc(NC(=O)CN(CCN(CC(=O)O)CC(=O)O)CC(=O)O)c1`: the inhibition constant (Ki) at Carbonic anhydrase 1 was found to be 10000 nM; on Carbonic anhydrase 4, 750 nM.
For the compound `NS(=O)(=O)c1ccc(CNC(=O)CN(CCN(CC(=O)O)CC(=O)O)CC(=O)O)cc1`, the inhibitory constant (Ki) turned out to be 900 nM on Carbonic anhydrase 1 and 83 nM at Carbonic anhydrase 4.
For `NS(=O)(=O)c1ccc(COC(=O)CN(CCOCCOCCN(CC(=O)O)CC(=O)OCc2ccc(S(N)(=O)=O)cc2)CC(=O)O)cc1`, in that order: 335 nM and 150 nM.
Take `NS(=O)(=O)c1ccc(NC(=O)CN(CCOCCOCCN(CC(=O)O)CC(=O)O)CC(=O)O)c(F)c1`: the values for the Ki on Carbonic anhydrase 1 and on Carbonic anhydrase 4 were 210 nM and 31 nM, respectively.
Regarding `NS(=O)(=O)c1ccc(CCOC(=O)CNCC(=O)O)cc1`, the inhibitory constant (Ki) on Carbonic anhydrase 1 was 1200 nM; on Carbonic anhydrase 4 it was 340 nM.
As for `NS(=O)(=O)c1cccc(NC(=O)CN(CCOCCOCCN(CC(=O)O)CC(=O)Nc2cccc(S(N)(=O)=O)c2)CC(=O)O)c1`, the Ki on Carbonic anhydrase 1 was 6150 nM; at Carbonic anhydrase 4, 400 nM.
On to `NS(=O)(=O)c1ccc(CCOC(=O)CN(CCOCCOCCN(CC(=O)O)CC(=O)OCCc2ccc(S(N)(=O)=O)cc2)CC(=O)O)cc1`, for which the Ki at Carbonic anhydrase 1 is 300 nM; at Carbonic anhydrase 4, 96 nM.
In the case of `NS(=O)(=O)c1cc(S(N)(=O)=O)c(NC(=O)CNCCNCC(=O)O)cc1Cl`, the inhibition constant Ki amounted to 250 nM at Carbonic anhydrase 1 and 135 nM on Carbonic anhydrase 4.
Turning to `NS(=O)(=O)c1nc2ccc(OCCOC(=O)CN(CCN(CC(=O)O)CC(=O)OCCOc3ccc4nc(S(N)(=O)=O)sc4c3)CC(=O)O)cc2s1`, the inhibition constant Ki at Carbonic anhydrase 1 amounted to 25 nM; on Carbonic anhydrase 4, 6 nM.
